We go through four compounds from US7452865B2, “Antagonistic analogs of GH RH (2003)” (The Administrare's of the Tulane Educational Fund, priority 2004, dated 2008).

Marks after values point to notes of the source that are not given here. Square brackets hold non-standard residues; d marks the D form. Peptide text beside a SMILES is read from it. * marks the point of attachment. Phe(4-Cl) = N[C@@H](Cc1ccc(Cl)cc1)C(=O)O; Dip = N[C@H](C(=O)O)C(c1ccccc1)c1ccccc1; hArg = N=C(N)NCCCC[C@H](N)C(=O)O; Nle = CCCC[C@H](N)C(=O)O; Abu = CC[C@H](N)C(=O)O; PhAc = O=C(Cc1ccccc1)*

Test [1] relates to PC-3 human prostate cancer xenografts. In words: PC-3 xenografts in nude mice, Experiment 3: tumor growth. The test is classed as in vivo. The following applies: for antitumor effect on PC-3 tumors (in words): 10 μg/day; for Tumor volume (mm^3) Final / Tumor volume doubling time / Tumor weight / Tumor volume Final (% inhibition) / Tumor weight (% inhibition): 10 μg/day s.c., 28 days; for Tumor volume Final (% inhibition) / Tumor weight (% inhibition): vs control; for Tumor volume (mm^3) Initial: at start of treatment. On the procedure: Male nude mice were implanted s.c. with 3 mm^3 pieces of PC-3 human hormone-independent prostate cancer tissue on both flanks. When tumors reached a volume of approximately 65 mm^3, the mice were divided into 7 experimental groups with 8 to 9 animals in each group and received single daily injections for 28 days as follows: 1. Control (vehicle solution); 2. JV-1-38 (10 μg/day s.c.); 3. Peptide 35 (10 μg/day s.c.); 4. Peptide 36 (10 μg/day s.c.); 5. Peptide 37 (10 μd/day s.c.); 6. Peptide 39 (10 μg/day s.c.); 7. Peptide 41 (10 μg/day s.c.). Tumor volumes were measured twice a week. The experiment was ended on day 28 by sacrificing the mice under Isofurane anesthesia. Resulting tumors were cleaned, weighed, and snapfrozen until further analyses. Trunk blood was collected from the abdominal aorta and serum was separated for RIA measurement of IGF-I. Statistical analyses of the measurement results were done by ANOVA followed by Fisher test; data are presented as the means±S.E.

Test [2] concerns hGH-RH(1-29)NH2 induced GH release. In words: Inhibition of GH release in superfused rat pituitary system. Format: cell-based. The following applies: for GH response (% of control) 0 min / GH response (% of control) 30 min / GH response (% of control) 60 min / GH response (% of control) 90 min / GH response (% of control) 120 min: antagonist 30 nM; for GH response (% of control) 0 min: 1 nM hGH-RH(1-29)NH2 at 0 min; for GH response (% of control) 30 min: 1 nM hGH-RH(1-29)NH2 at 30 min; for GH response (% of control) 60 min: 1 nM hGH-RH(1-29)NH2 at 60 min; for GH response (% of control) 90 min: 1 nM hGH-RH(1-29)NH2 at 90 min; for GH response (% of control) 120 min: 1 nM hGH-RH(1-29)NH2 at 120 min. An outline of the steps: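 Dispersed rat pituitary cells in superfusion were preincubated 9 min with analog at various concentrations, then stimulated with 1 nM hGH-RH(1-29)NH2 for 3 min, repeated at 30, 60, 90, 120 min to gauge duration. GH measured by double-antibody RIA; net integrated responses expressed as percent of the initial 1 nM GH-RH response.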

For test [3], the system named is GH-RH receptor isoforms on membrane fractions of human PC-3 prostate tumors. Format: binding. The note with it: general statement. From the text:
Ligand competition assays with ^125I-labeled GH-RH antagonist JV-1-42 were used to determine the binding affinities of GH-RH analogs to the GH-RH receptor isoforms on membrane fractions of human PC-3 prostate tumors. The methods used have been described in detail (Halmos G, Schally A V, Varga J L, Plonowski A, Rekasi Z, Czompoly T, Proc Natl Acad Sci USA 97: 10555-10560, 2000; Halmos G, Schally A V, Czompoly T, Krupa M, Varga J L, Rekasi Z, J Clin Endocrinol Metab 87: 4707-4714, 2002), hereby incorporated by reference. Briefly, radioiodinated derivatives of JV-142 are prepared by the chloramine-T method. PC-3 tumors, grown as xenografts in nude mice, are used to prepare crude membranes. PC-3 membrane homogenates are incubated with [^125I]JV-142 and increasing concentrations (10^−12 to 10^−6 M) of nonradioactive antagonist peptides as competitors. The pellet is separated by centrifugation and counted for radioactivity in a gamma-counter. The final binding affinities are estimated by K1 (dissociation constant of the inhibitor-receptor complex) and are determined by the Ligand PC and McPherson computer programs of Munson and Rodbard (P. J. Munson and D. Rodbard, Anal. Biochem. […]: 220-239, 1980). Relative affinities (R.A.) compared to reference peptides such as JV-1-36 or JV-1-38, are calculated as the ratio of K1 of the reference peptide to the K, of the tested GH-RH antagonist.

As to `CCCC[C@H](NC(=O)[C@@H](NC(=O)[C@H](CC(=O)O)NC(=O)[C@H](CCC(N)=O)NC(=O)[C@H](CC(C)C)NC(=O)[C@H](CC(C)C)NC(=O)[C@H](CCCCN)NC(=O)[C@H](CCCNC(=N)N)NC(=O)[C@H](C)NC(=O)[C@H](CO)NC(=O)[C@H](CC(C)C)NC(=O)[C@H](CCC(N)=O)NC(=O)[C@H](CC)NC(=O)[C@H](CC(C)C)NC(=O)[C@@H](NC(=O)[C@H](CCCCN)NC(=O)[C@H](CCCNC(=N)N)NC(=O)[C@@H](NC(=O)[C@H](CCCCNC(=N)N)NC(=O)[C@H](CC(N)=O)NC(=O)[C@@H](NC(=O)[C@H](Cc1ccc(Cl)cc1)NC(=O)[C@@H](NC(=O)[C@H](C)NC(=O)[C@H](CC(=O)O)NC(=O)[C@@H](CCCNC(=N)N)NC(=O)[C@H](Cc1ccc(O)cc1)NC(=O)Cc1ccccc1)[C@@H](C)CC)[C@@H](C)O)C(c1ccccc1)c1ccccc1)C(C)C)[C@@H](C)CC)C(=O)N[C@H](CCCNC(=N)N)C(=O)N[C@@H](CCCCNC(=N)N)C(N)=O` [Peptide 36, [PhAc-Tyr^1, D-Arg^2, Phe(pCl)^6, Har^9, Dip^10, Abu^15, Nle^27, D-Arg^28, Har^29]hGH-RH(1-29)NH2] (PhAc-Y[dR]DAI[Phe(4-Cl)]TN[hArg][Dip]RKVL[Abu]QLSARKLLQDI[Nle][dR][hArg]-NH2), in test [1], the “antitumor effect on PC-3 tumors (in words)” value (shortened to “antitumor effect”) is “more potent antitumor effect than reference peptide JV-1-38”, the “Tumor volume (mm^3) Final” value is listed as 214 ± 72.6** mm^3, the “Tumor volume doubling time” value is 18.7 ± 3.83 days and the “Tumor weight” value turned out to be 361 ± 89.6 mg. For the same compound, in test [1], the “Tumor volume Final (% inhibition)” value is listed as “(76%)”, the “Tumor weight (% inhibition)” value is “(48%)” and the “Tumor volume (mm^3) Initial” value was determined as 68.0 ± 11.7 mm^3. Further, in test [2], the “GH response (% of control) 0 min” value is listed as 104 % of control, the “GH response (% of control) 30 min” value was 90 % of control, the “GH response (% of control) 60 min” value was 112 % of control and the “GH response (% of control) 90 min” value is reported as 97 % of control. In addition, the “GH response (% of control) 120 min” value in test [2] is given as 120 % of control. In addition, the “binding affinities to the tumoral receptors for GH-RH (in words)” value (from here on “binding affinities”) in test [3] is listed as “extremely high binding affinities”.

Turning to `CCCC[C@H](NC(=O)[C@@H](NC(=O)[C@H](CC(=O)O)NC(=O)[C@H](CCC(N)=O)NC(=O)[C@H](CC(C)C)NC(=O)[C@H](CC(C)C)NC(=O)[C@H](CCCCN)NC(=O)[C@H](CCCNC(=N)N)NC(=O)[C@H](C)NC(=O)[C@H](CO)NC(=O)[C@H](CC(C)C)NC(=O)[C@H](CCC(N)=O)NC(=O)[C@H](CC)NC(=O)[C@H](CC(C)C)NC(=O)[C@@H](NC(=O)[C@H](CCCCN)NC(=O)[C@H](CCCNC(=N)N)NC(=O)[C@H](Cc1ccc(OCC)cc1)NC(=O)[C@H](CCCCNC(=N)N)NC(=O)[C@H](CC(N)=O)NC(=O)[C@@H](NC(=O)[C@H](Cc1ccc(Cl)cc1)NC(=O)[C@@H](NC(=O)[C@H](C)NC(=O)[C@H](CC(=O)O)NC(=O)[C@@H](CCCNC(=N)N)NC(=O)[C@H](Cc1ccc(O)cc1)NC(=O)Cc1ccccc1)[C@@H](C)CC)[C@@H](C)O)C(C)C)[C@@H](C)CC)C(=O)N[C@H](CCCNC(=N)N)C(=O)N[C@@H](CCCCNC(=N)N)C(N)=O` [Peptide 41, [PhAc-Tyr^1, D-Arg^2, Phe(pCl)^6, Har^9, Tyr(Et)^10, Abu^15, Nle^27, D-Arg^28, Har^29]hGH-RH(1-29)NH2] (PhAc-Y[dR]DAI[Phe(4-Cl)]TN[hArg]Y(Et)RKVL[Abu]QLSARKLLQDI[Nle][dR][hArg]-NH2), in test [1], the “Tumor volume (mm^3) Final” value is on record as 341 ± 107* mm^3, the “Tumor volume doubling time” value came out at 28.2 ± 9.85 days, the “Tumor weight” value is 579 ± 188 mg and the “Tumor volume Final (% inhibition)” value is “(54%)”. Also, in test [1], the “Tumor weight (% inhibition)” value is listed as “(17%)” and the “Tumor volume (mm^3) Initial” value is reported as 66.7 ± 12.5 mm^3. Further, in test [2], the “GH response (% of control) 0 min” value is on record as 47 % of control, the “GH response (% of control) 30 min” value was 16 % of control, the “GH response (% of control) 60 min” value is listed as 14 % of control and the “GH response (% of control) 90 min” value was 15 % of control. Further, the “GH response (% of control) 120 min” value in test [2] was 16 % of control. Also, the “endocrine antagonistic potency: inhibition of the GH release stimulated by hGH-RH(1-29)NH2 (in words)” value in test [2] (general statement, in vitro and in vivo) was “high endocrine antagonistic potencies”. Moreover, the “binding affinities” value in test [3] was “extremely high binding affinities”.

Turning to “[PhAc-Tyr^1, D-Arg^2, Phe(pCl)^6, Har^9, 2-Nal^10, Abu^15, Nle^27, D-Arg^28, Har^29]hGH-RH(1-29)NH2 [Peptide 35]”, in test [1], the “antitumor effect” value is on record as “more potent antitumor effect than reference peptide JV-1-38”, the “Tumor volume (mm^3) Final” value is 261 ± 52.9** mm^3, the “Tumor volume doubling time” value is listed as 17.0 ± 2.32 days and the “Tumor weight” value is given as 286 ± 58.9 mg. For the same compound, in test [1], the “Tumor volume Final (% inhibition)” value was “(68%)”, the “Tumor weight (% inhibition)” value is given as “(59%)” and the “Tumor volume (mm^3) Initial” value is reported as 65.7 ± 11.3 mm^3. For the same compound, in test [2], the “GH response (% of control) 0 min” value is recorded as 91 % of control, the “GH response (% of control) 30 min” value is recorded as 57 % of control, the “GH response (% of control) 60 min” value is on record as 80 % of control and the “GH response (% of control) 90 min” value is 66 % of control. Further, the “GH response (% of control) 120 min” value in test [2] is 72 % of control. In addition, in test [3], the “binding affinities” value is “extremely high binding affinities”.

On to “[PhAc-Tyr^1, D-Arg^2, Phe(pCl)^6, Har^9, Phe(pNO2)^10, Abu^15, Nle^27, D-Arg^28, Har^29]hGH-RH(1-29)NH2 [Peptide 39]”, for which, in test [1], the “antitumor effect” value is reported as “more potent antitumor effect than reference peptide JV-1-38”, the “Tumor volume (mm^3) Final” value is 271 ± 109** mm^3, the “Tumor volume doubling time” value turned out to be 19.6 ± 2.10 days and the “Tumor weight” value was 247 ± 55.4 mg. For the same compound, in test [1], the “Tumor volume Final (% inhibition)” value was “(66%)”, the “Tumor weight (% inhibition)” value is recorded as “(65%)” and the “Tumor volume (mm^3) Initial” value came out at 66.7 ± 11.2 mm^3. Further, in test [2], the “GH response (% of control) 0 min” value is recorded as 63 % of control, the “GH response (% of control) 30 min” value is listed as 54 % of control, the “GH response (% of control) 60 min” value was 36 % of control and the “GH response (% of control) 90 min” value is given as 37 % of control. In test [2], the “GH response (% of control) 120 min” value is 36 % of control. Further, in test [3], the “binding affinities” value was “extremely high binding affinities”.
